Laboratory results from patent US10391180B2, “Self-assembling complex for targeting chemical agents to cells” (CEDARS-SINAI MEDICAL CENTER, priority 2007, dated 2019).

How the values were obtained:
[1] = tested on: bilateral flank tumors (HER2+); test: In vivo tumor toxicity, tumor growth; design: species or system mice; details: daily tail vein injections, 0.004 mg/kg Dox conc, 7 consecutive days
Method: (§1) FIGS. 12 (A)-(D) illustrates comparison of HerDox and Dox on (A) tumor growth, (B) animal weight, (C) cardiac tissue, and (D) cardiac function.
To assess in vivo tumor toxicity, mice bearing 3-4 week bilateral flank tumors began receiving daily tail vein injections of Dox or HerDox (0.004 mg/kg with respect to Dox conc), HerPBK10 alone (at equivalent protein concentration to HerDox) or saline for 7 consecutive days.

hearts of mice = test: Cardiac tissue histology and echocardiography; format: in vivo
Excerpt: as §1
At 25 days following injections, tumors and organs were harvested and processed for histochemistry. It is established that Dox can induce acute and long-term cardiotoxicity, therefore, the inventors examined the hearts of mice treated with HerDox or Dox.

HER2+ tumors = test: HerDox vs Dox biodistribution by Dox fluorescence imaging; format: in vivo, mice
Method: FIGS. 11 (A)-(B) illustrates preferential targeting of HerDox to HER2+ tumors. Tumor-bearing mice were injected with 0.75 nmoles of HerDox or Dox via the tail vein and imaged with a custom small animal imager. FIG. 11 (A) depicts imaging of live mice after IV delivery of HerDox. Tumors are indicated by arrows. FIG. 11 (B) depicts imaging of tumors and tissues harvested at 3 h after injection of HerDox or Dox. Fluorescence signal from Dox is pseudo-colored according to the color bar, with a shift toward 100 indicating high fluorescence intensity. FIG. 11 (B) illustrates a comparison of the targeted delivery of Dox to HER2+ breast cancer cells with minimal delivery to other organs and tissues using a delivery system in accordance with an embodiment of the present invention (left panel), as compared with Dox administered alone (right panel).
Dox emits a red fluorescence upon appropriate wavelength excitation, which can be used to detect biodistribution after systemic delivery of HerDox. Mice bearing 4-week old) tumors (˜700-800 mm^3) received a single tail vein injection of Dox or HerDox ([…] with respect to Dox cone) and images of live mice captured in real time, or of organs/tissues harvested at ˜3 h postinjection were acquired using a customized macro-illumination and detection system. Fluorescence was evident throughout the body at 10 min after HerDox injection, then quickly accumulated at the tumors by 20 min and remained detectable in the tumors up to 100 min after injection (FIG. 11 (A)).

MDA-MB-435 cells [2] = test: Intracellular translocation in live cells, Dox fluorescence microscopy; format: cell-based
Method: FIGS. 14 (A)-(B) illustrates comparison of HerDox and Dox intracellular translocation and targets in live cells. MDA-MB-435 cells were incubated with HerDox or free Dox (0.5 uM) at 37° C. Live (unfixed) cells were imaged by brightfield and fluorescence as depicted in […], or DIC and confocal fluorescence, as depicted in FIG. 14 (B), microscopy. Dox is indicated by red or magenta pseudocolor.
To understand the mechanism of HerDox mediated tumor cell death, the inventors examined HER2+ cells microscopically after treatment with HerDox, using Dox fluorescence to detect intracellular location. […] These dynamics, in addition to earlier targeting results, support a receptor-mediated HerDox entry mechanism. Even the intranuclear pattern of Dox when delivered by HerPBK10 differs from free Dox.

MDA-MB-435 (HER2+) cells = test: Targeted toxicity, MTT assay, separate dishes; format: cell-based; details: Dox 0.5 uM; HerPBK10 0.1 uM; day 3
Method: (§2) FIG. 7 illustrates targeted toxicity. Each cell line was exposed to HerDox (0.5 uM Dox cone), Dox alone (0.5 uM), or HerPBK10 alone for 4 h at 37° C. in complete (i.e. serum-containing) media, followed by aspiration to remove free conjugate, and addition of fresh medium while cells are grown continuously. Cell titer was determined by metabolic (i.e. MTT) assay. FIG. 7 upper panel illustrates the effect of HerDox on MDA-MB-231 (HER2−) and MDA-MB-435 (HER2+) cell survival. Relative surviving cell numbers are represented as a % of corresponding untreated cells. FIG. 7 lower panel illustrates comparison of HerDox, Dox alone, or HerPBK10 alone on HER2− and HER2+ cell survival. Relative survival (as % of untreated cells) is shown for Day 3 of treatment.
(§3) The inventors compared the effect of HerDox or Dox alone at equivalent dosages (0.5 uM with respect to Dox concentration) on HER2+ and HER2− breast cancer cells in separate dishes. By three days, HerDox reduced HER2+ cell numbers by over 75% whereas HER2− cell survival was unaffected (FIG. 7). […] These findings emphasize the importance of targeting by showing that the untargeted drug affects nontarget (i.e. HER2−) cells. Importantly, the protein carrier, HerPBK10, alone at the equivalent concentration of protein in HerDox (0.1 uM) had no effect on either cell line (FIG. 7), including a lack of proliferation induction. To test receptor targeting, the inventors used free heregulin ligand (Her or eHRG) as a competitive inhibitor. […] As a final in vitro challenge, the inventors tested whether HerDox induces toxicity specifically to HER2+ cells in a mixed culture of HER2+ and HER2− breast cancer cells. To do this, the inventors produced a HER2− cell line tagged with green fluorescent protein (GFP) for cell identification in the mixed culture (FIG. 9 (A)). […] Altogether, these findings indicate that HerDox has the capacity to preferentially target toxicity to HER2+ cells. […] Moreover, the preferential cell killing of HER2+ cells in a mixed culture of HER2+ and HER2− cells implies that after death and lysis of the target cells, the Dox released into those cells is incapable of continuing to induce toxicity to HER2− cells. To further confirm the stability of HerDox in cell culture, HerDox was recovered from culture media in separate experiments at indicated time points and electrophoresed on an agarose gel, which was then illuminated by UV to detect Dox and stained with Coomassie blue to detect HerPBK10 protein (FIG. 9 (C)). […] Co-migration of HerPBK10 bands further verified that the conjugates remained intact in the cell media.

MDA-MB-231 (HER2−) cells = test: Targeted toxicity, MTT assay, separate dishes; format: cell-based; details: HerDox/Dox 0.5 uM Dox; HerPBK10 0.1 uM; day 3
Method: as §2, §3

MDA-MB-435 cells [3] = test: HerPBK10 binding to cells in human serum, ELISA; format: cell-based; details: 1.2 ug/well, cells exposed 2 hours to human sera
Method: FIG. 16 illustrates HerPBK10 binding to MDA-MB-435 cells in human serum from HER2+ or HER2− breast cancer patients. Cells were treated with HerPBK10 (1.2 ug/well) in media containing human serum from each of 5 HER2+ breast cancer patients or age matched HER2− controls, both obtained pre-chemotherapy treatment. Cells were processed for ELISA using an antibody directed at HerPBK10. Control (C) wells receiving HerPBK10 in media containing bovine serum without or with 100× molar excess competitive ligand inhibitor (+ Her) are indicated by open bars. Patient sera were provided by the WCRI tissue bank at Cedars-Sinai Medical Center. N=3 wells per treatment.
To determine whether HerPBK10 can compete with circulating ligand that may be present in serum, the inventors tested HerPBK10 binding to HER2+ breast cancer cells in human serum obtained from HER2+ patients. The Women's Cancer Research Institute at Cedars-Sinai occasionally acquires limited quantities of patient serum, of which sera from HER2+ patients comprises an even smaller minority. […] Here, the inventors replaced the bovine serum in the routine culturing media with the human serum obtained from the acquired patient samples to assess whether the human serum, especially from HER2+ patients, inhibits cell binding. […]

[4] = in the presence of serum; cited from earlier work
[5] = harvested at 3 h after injection

**Q.** What does the source list for `COc1cccc2c1C(=O)c1c(O)c3c(c(O)c1C2=O)C[C@@](O)(C(=O)CO)C[C@@H]3O[C@H]1C[C@H](N)[C@H](O)[C@H](C)O1` [Dox, doxorubicin, reference compound]?
**A.** tumor growth [1]: slows tumor growth; gross appearance of hearts (hearts of mice; 25 days following injections): slightly enlarged and dilated; myocardium morphology (histochemistry) (hearts of mice; 25 days following injections): focal degeneration, myofibrillar loss, increased cytosoplasmic vacuolization, and nuclear condensation or dissolution; echocardiogram: stroke volume, cardiac output, left ventricular internal dimension and volume (hearts of mice; treated mice): modest to marked reductions; Dox fluorescence in kidneys (HER2+ tumors; [5]): detectable fluorescence; Dox fluorescence in liver (HER2+ tumors; [5]): detectable fluorescence; Dox fluorescence in tumors (HER2+ tumors; [5]): detectable fluorescence; Dox fluorescence in lungs and skeletal muscle (HER2+ tumors; harvested ~3 h after injection, equivalent dose of Dox): Lower levels of fluorescence; intracellular location of Dox fluorescence (MDA-MB-435 cells [2]; 0.5 uM, 0 min of uptake): inside the cell at the nuclear periphery; intranuclear pattern of Dox (MDA-MB-435 cells [2]; live cells, confocal): accumulates in the cell nucleus; effect on HER2+ cell numbers (MDA-MB-435 (HER2+) cells): reduced both HER2+ and HER2− cells by the same order of magnitude; effect on HER2− cell survival (MDA-MB-231 (HER2−) cells): reduced both HER2+ and HER2− cells by the same order of magnitude

**Q.** What does the source list for “HerPBK10: receptor binding domain of heregulin fused to adenovirus penton base protein modified by a C-terminal decalysine”?
**A.** cell binding in serum from HER2+ patients, HER2− patients, or bovine serum (MDA-MB-435 cells [3]): no significant differences; receptor targeting under physiological conditions [4]: retains receptor targeting; tumor growth [1]: no effect; effect on HER2+ cell numbers (MDA-MB-435 (HER2+) cells): no effect; effect on HER2− cell survival (MDA-MB-231 (HER2−) cells): no effect
